Tests used:
Format in all cases: cell-based
[1] = tested on: Primary human MSCs; test: EV secretion per cell from MSCs on hydrogel substrates, nanoparticle tracking analysis; conditions: 5 μM CK869; hydrogels
Method: Cell Seeding on Hydrogels. Hydrogel discs were placed in ultra-low binding polystyrene well plates (Corning) to ensure cells attach to hydrogels and not the plate surface. Hydrogels were washed with Hank's buffered salt solution (HBSS, Thermo Fisher Scientific) for at least 3 days before seeding cells. Cells were seeded at a low density (25 cells/mm^2). After seeding, hydrogels were washed thoroughly to remove unattached cells. Drug treatments of 3 μM MnCl2 (Thermo Fisher Scientific), 200 nM EMD 121974 sold under the tradename Cilengitide® (Cayman) and 5 μM CK869 (Cayman) were applied during and after cell adhesion to substrates. To evaluate the number of live cells seeded on substrates, cells were detached by incubating with a natural enzyme mixture with proteolytic and collagenolytic enzyme activity sold under the tradename ACCUTASE® Cell Detachment Solution (Innovative Cell Technologies, Inc.) for 10 minute at 37° C. Cells were then washed by centrifugation and directly added to HBSS containing calcein AM (1:2000; Biotium), ethidium bromide (1:2000; Thermo Fisher Scientific), and a predefined number of allophycocyanin (APC) beads (BD). After incubation at room temperature (RT) for 10 minutes, the samples were analyzed for live and dead cell number by flow cytometry.
Particle Size and Number Characterization. Particle size and number were obtained using Nanoparticle Tracking Analysis 3.2 (NTA) via NanoSight NS300 (Malvern) using a 405 nm laser. Samples were introduced by syringe pump at a rate 100 μL/min. Three thirty-second videos were acquired using camera level 14 followed by detection threshold 7. Camera focus, shutter, blur, minimum track length, minimum expected particle size and maximum jump length were set automatically by the software. Samples were diluted as needed to maintain particles per video from 100-2000. To ensure specificity, all samples were tested as compared to appropriate blank conditions.
To test the effect of substrate mechanics on EV secretion from MSCs, hydrogel substrates were engineered which were composed of alginate polymer conjugated with the cell adhesion peptide Arg-Gly-Asp (RGD) that binds primarily to αvβ3 and α5β1 integrins. Alginate-RGD hydrogels can be formed either covalently through adipic acid dihydrazide or physically through divalent cations, resulting in elastic or stress-relaxing hydrogels, respectively. For both types of hydrogels, elastic modulus (Young's modulus, E) of ˜3 kPa ‘soft’ and E ˜20 kPa ‘stiff’ were considered values that represent a physiologically relevant range of substrate elasticity for MSC mechanosensing, while E is ˜0.1 GPa for conventional plastic substrates. Primary human bone marrow MSCs were allowed to adhere to substrates for 24 hours followed by washout and collection of the serum-free conditioned medium from MSCs after 24 hours. After centrifugation of the medium at 10,000 g to remove cell, apoptotic, and larger particle fractions, particles remaining in the medium were analyzed by nanoparticle tracking analysis and normalized to the number of live adhered cells counted by flow cytometry (see Methods). MSCs were seeded at low density (˜25 cells/mm^2) to avoid potential effects from cell-cell interactions. […] Thus, focus was placed on the EVs remaining in the supernatant after the 10,000 g centrifugation. For these EVs, the particle size distribution remained similar across different substrates with median diameter ˜120 nm (FIG. 1B). […] Moreover, EVs from different substrates expressed similar levels of late endosomal markers CD63 and CD9. Importantly, levels of ribosomal RNA (rRNA) in particle preparations were similar across hydrogels or plastic substrates, and rRNA as a percentage of total RNA was lower than that found in untreated MSCs or particles derived from H2O2-treated apoptotic MSCs, ruling out apoptosis as a potential factor of increased EV secretion on the soft hydrogel. […]

[2] = tested on: F-actin in MSCs; test: Confocal imaging of F-actin in cells on hydrogels; conditions: CK869 for 2 hours; cell adhesion for 4 hours
Method: Sample Preparation for Imaging of F-Actin in Cells on Hydrogels. To prepare samples for F-actin imaging, glass bottom dishes (No 0., 35 mm; MatTek) were silanized, and a thin layer of PEG-DA hydrogel with varied elasticity was formed as described above. After cell seeding on hydrogels and culturing cells in the presence of DMSO or CK869, cells were permeabilized with 0.0015% saponin (Sigma) in a cytoskeleton buffer (10 mM MES, pH 6.0, 150 mM NaCl, 5 mM EGTA, 5 mM glucose, and 5 mM MgCl2) for 4 minutes at room temperature. The samples were then washed with the cytoskeleton buffer 3 times and fixed with 4% paraformaldehyde in the cytoskeleton buffer for 20 minutes at room temperature. After washing 3 times with the cytoskeleton buffer, the samples were reduced in 0.1% sodium borohydride in PBS for 20 minutes at room temperature. To label F-actin in cells, the samples were stained with a fluorescent stain sold under the tradename ALEXA FLUOR® 488 phalloidin (1:1000; Cayman) for confocal imaging or ALEXA FLUORO 647 phalloidin (1:10000; Cayman) for super-resolution imaging in PBS with 3% BSA for 40 minutes at room temperature. The samples were washed 3 times with PBS prior to imaging.
Confocal Imaging of F-actin. […] A mean projection image was created from each confocal stack, and average intensity ALEXA FLUOR® 488 phalloidin per cell was analyzed by ImageJ (NIH). […]

[3] = tested on: membrane-cytoskeleton attachment in MSCs; test: Force for membrane tether formation by AFM; conditions: CK869 treatment for 2 hours; within 4 hours of cell adhesion
Method: Measurement of Force for Membrane Tether Formation by Atomic Force Microscopy (AFM). Membrane tethering force was measured by using 3D-BIO AFM (Asylum Research, Oxford Instruments) with TR400PSA cantilevers (OTR4; spring constant=30 pN/nm). Indentation depth for each measurement was 4 μm with a velocity of 2 μm/s, and the force curve for each measurement was recorded by the AFM software (AR14). For each cell, 25-50 force curves were analyzed. In force mode, the piezotranducer (PZT) was set to drive the cantilever to approach, touch, make an indentation, and retract over a predefined distance in the optical axis perpendicular to the cell surface. The force curve was generated from the recorded vertical-axis movement of the PZT and the deflection of the cantilever with a known dimension and a spring constant. In the force curve representing the retraction of the cantilever from a cell, a sudden release of force occurred at the rupture of a membrane tether was quantified via a custom MATLAB program.

[4] = tested on: Primary human MSCs; test: EV secretion per cell from MSCs on hydrogel substrates, nanoparticle tracking analysis; conditions: 5 μM CK869, ~4 hour adhesion, EV collection after 24 hours

COc1ccc(N2C(=O)CSC2c2cccc(Br)c2)c(OC)c1 (centres unmarked) [CK869]
EV secretion compared to DMSO [1]: significantly increased EV secretion
mean intensity of phalloidin-labelled F-actin signal per cell [2]: decrease the signal intensity on both substrates
force of membrane tether formation [3]: slightly decreased tethering on the soft hydrogel
EV secretion on the soft hydrogel ([4]; soft hydrogel): to a lesser but significant extent
EV secretion on the stiff hydrogel ([4]; stiff hydrogel): increased EV secretion on the stiff hydrogel

Reference: US20230279379A1, “METHODS AND MICROFLUIDIC DEVICE FOR PRODUCING EXTRACELLULAR VESICLES” (THE BOARD OF TRUSTEES OF THE UNIVERSITY OF ILLINOIS, priority 2022, published 2023)
